Test results as given in patent publication US10752584B2 (EMORY UNIVERSITY, priority 2016, dated 2020).

Legend:
Assay type in all cases: cell-based
[1] = Cellular toxicity assay in Vero cells; settings: African green monkey, read-out: Cytotoxicity
Procedure, shortened: (§1)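 Compound toxicity was tested in cultured cells, with cycloheximide as positive cytotoxic control and solvent-exposed untreated cells as negative control. Cytotoxicity IC50 came from the concentration-response curve by the median effective method.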

[2] = system: Vero; test: Cellular toxicity assay in Vero cells; settings: read-out: Cytotoxicity
Procedure, shortened: as §1

[3] = Cellular toxicity assay in human PBM cells; settings: human, human PBM cells, read-out: Cytotoxicity
Procedure, shortened: as §1

[4] = system: human PBM; test: Cellular toxicity assay in human PBM cells; settings: read-out: Cytotoxicity
Procedure, shortened: as §1

[5] = Cellular toxicity assay in HepG2 cells; settings: human, read-out: Cytotoxicity
Procedure, shortened: as §1

[6] = system: HBV e antigen (HBeAg); test: HBeAg ELISA in HepAD38 cells (cccDNA-dependent marker)
Method: Production of secreted HBeAg is predominantly cccDNA-dependent in HepAD38 cells and therefore can serve as a surrogate marker for cccDNA (Ladner, S. K., Otto, M. J., Barker, C. S., Zaifert, K., Wang, G. H., Guo, J. T., Seeger, C., King, R. W. Antimicrob Agents Chemother 1997, 41, 1715-1720; Zhou T, Guo H, Guo J T, Cuconati A, Mehta A, Block T M. Antiviral Res. 2006; 72 (2): 116-24.). The effect on the levels of cccDNA formation was assessed using a cell-based assay that measures HBV e antigen (HBeAg) as a cccDNA-dependent marker in the HepAD38 system. HepAD38 cells were seeded at 50,000 cells/well in collagen-coated 96-well plates with DMEM/F12 medium (Life Technologies) supplemented with 10% heat-inactivated fetal bovine serum. Cells were treated with 0.3 μg/ml tetracycline as needed. Test compounds and controls were added to cells to a final concentration of 10 μM or in a dose response manner ranging from 0.001 to 10 μM. Medium and test compounds were replenished every 5 days in culture. Supernatants were harvested at day-14, clarified by centrifugation at 5000 rpm for 5 min, and stored at −70° C. until use. ELISA—Culture medium was diluted 1:15 in DMEM/F12 and the levels of HBeAg secreted in the culture medium were measured by using HBeAg ELISA kit (BioChain Institute Inc. Hayward, Calif.) according to the manufacturer's protocol. The concentration of compound that reduced levels of secreted HBeAg by 50% (EC50) was determined by linear regression.

[7] = system: wild type HBV; test: Anti-HBV assay in AD-38 cell line; settings: Hepatitis B virus; AD-38 cells, HBV in culture supernatant; read-out: Anti-HBV activity EC50

O=C(Nc1ccc(F)c(F)c1)c1cc(S(=O)(=O)NCc2cn(C3CC3)nn2)ccc1F [Compound 13, 5-(N-((1-Cyclopropyl-1H-1,2,3-triazol-4-yl)methyl)sulfamoyl)-N-(3,4-difluorophenyl)-2-fluorobenzamide]
CC50 [1]: 55.6 µM
CC50 [2]: 66 µM
CC50 [3]: > 100 µM
CC50 [4]: 64.8 µM
CC50 [5]: > 100 µM
Anti-HBeAg activity, percentage in brackets under EC50 ([6]; HepAD38 cells, day 14, concentration not printed in the table (method: 10 μM)): (86%)
EC50 ([6]; Hepatitis B virus, HePAD38, 336 h, read-out: Anti-HBeAg activity EC50): < 10 µM
EC50 [7]: 0.1 to 0.9 µM
